Holding throughout (format): functional
Experiment [1] is described as follows: (§1) Cytotoxicity in HPBMC (Human Peripheral Blood Mononuclear Cells). Further details: concentration or dose not given beside the values.
Experiment [2] can be described thus: Inhibition of TNF-alpha was tested in HPBMC (Human Peripheral Blood Mononuclear Cells).
Experiment [3] in a line: as §1.
A short description of experiment [4]: Inhibition efficacy of TNF-alpha was tested in HPBMC (Human Peripheral Blood Mononuclear Cells). Details: concentration or dose not given beside the values.
The species entered for experiment [5] is Homo sapiens. Put plainly: (§2) Cytotoxicity in HPBMC (Human Peripheral Blood Mononuclear Cells); Not active.
The species entered for experiment [6] is Homo sapiens. The experiment in a line: Inhibition efficacy of TNF-alpha was tested in HPBMC (Human Peripheral Blood Mononuclear Cells); Not active.
The nature of experiment [7]: Inhibition of TNF-alpha was tested in HPBMC (Human Peripheral Blood Mononuclear Cells); Inactive.
The nature of experiment [8]: Inhibition of TNF-alpha was tested in HPBMC (Human Peripheral Blood Mononuclear Cells); inactive.
Experiment [9] can be described thus: Inhibition of TNF-alpha was tested in HPBMC (Human Peripheral Blood Mononuclear Cells); In active.
The nature of experiment [10]: as §2.

Values after ≈ are worked out from the molar mass of the structure shown. Active and inactive are the calls of the source. The rule behind the calls is not given here.

As usually defined, the IC50 is the midpoint of a concentration-inhibition curve. What is called EC50 is the concentration at which the effect is half-maximal.

Turning to `C=C[C@]1(C)CCC=C2[C@H]1CC[C@@H]1[C@](C)(C(=O)OC)CCC[C@@]21C`, the Efficacy is reported as 71% in experiment [1] and 99% in experiment [4]. This molecule registered an IC50 in experiment [2] of 1.4 µg/mL (≈ 4.42 µM). Besides, the EC50 in experiment [3] was 3.1 µg/mL (≈ 9.8 µM).
In the case of `C=C[C@@]1(C)CCC=C2[C@H]1CC[C@@H]1[C@](C)(CO)CCC[C@@]21C`, the Efficacy entry in the experiment listed under Homo sapiens [5] was “inactive”. Also, in experiment [2], the IC50 came out at 2.3 µg/mL (≈ 7.97 µM). This molecule also yielded an Efficacy in experiment [4] of 38%.
In the case of `C[C@]1(C(=O)O)CCC[C@]2(C)c3cc(O)ccc3CC[C@@H]12` [PODOCARIC ACID], the Efficacy result in the experiment filed under Homo sapiens [6] and in the experiment listed under Homo sapiens [5] was “inactive” throughout. The IC50 result in experiment [7] is given as “Not Active”.
With `C=C[C@@]1(C)CCC=C2[C@H]1CC[C@@H]1[C@](C)(C(=O)O)CCC[C@@]21C`, the Efficacy in experiment [1] is given as 66%; in experiment [4], 90%. This molecule came in with an IC50 in [2] of 5.7 µg/mL (≈ 18.8 µM). The EC50 in [3] stood at 7.8 µg/mL (≈ 25.8 µM).
As for `C=C[C@@]1(C)CC(=O)[C@]2(O)[C@@]3(C)[C@@H](O)CCC(C)(C)[C@@H]3[C@H](O)[C@H](OC(C)=O)[C@@]2(C)O1` [COLFORSIN], the Efficacy result in the experiment filed under Homo sapiens [6] and in the experiment listed under Homo sapiens [5] was “inactive” each time. Also, in experiment [8], the IC50 result is given as “Not Active”.
Regarding `C=C[C@@]1(C)CCCC2=C1CC[C@@H]1[C@](C)(CO)CCC[C@@]21C`, the Efficacy in [1] and in [4] was 99% each time. This molecule also returned an IC50 in experiment [2] of 3.1 µg/mL (≈ 10.7 µM). This molecule showed an EC50 in [3] of 3.4 µg/mL (≈ 11.8 µM).
For `C=C[C@@]1(C)CCCC2=C1CC[C@@H]1[C@](C)(C(=O)O)CCC[C@@]21C`, the Efficacy in [1] is listed as 99%; in experiment [4], 98%. The same molecule registered an IC50 in experiment [2] of 2.8 µg/mL (≈ 9.26 µM). This molecule came in with an EC50 in experiment [3] of 2.2 µg/mL (≈ 7.27 µM).
In the same order, the values of `C=C[C@]1(C)CCC=C2[C@H]1CC[C@@H]1[C@](C)(CO)CCC[C@@]21C` are 93%, 99%, 2.2 µg/mL (≈ 7.63 µM) and 2.3 µg/mL (≈ 7.97 µM).
As to `C=C[C@@]1(C)CCCC2=C1CC[C@@H]1[C@](C)(C(=O)OC)CCC[C@@]21C`, the Efficacy result in the experiment filed under Homo sapiens [5] was “inactive”. In [2], this molecule returned an IC50 of 0.6 µg/mL (≈ 1.9 µM). Also, in experiment [4], the Efficacy is 47%.
In the case of `COC(=O)[C@]1(C)CCC[C@@]2(C)C3=CCC[C@](C)(CO)[C@@H]3CC[C@H]12`, the Efficacy result in the experiment listed under Homo sapiens [6] and in the experiment listed under Homo sapiens [5] was “inactive” throughout. Moreover, the IC50 entry in [9] is listed as “Not Active”. Further, the EC50 result in experiment [10] is given as “Not Active”.
With `C=C[C@]1(C)CCC=C2[C@H]1CC[C@@H]1[C@](C)(C(=O)O)CCC[C@@]21C`, the Efficacy is 35% in [1] and 86% in experiment [4]. Further, the IC50 in experiment [2] was 3.7 µg/mL (≈ 12.2 µM).
For `C=C[C@@]1(C)CCC=C2[C@H]1CC[C@@H]1[C@](C)(C(=O)OC)CCC[C@@]21C`, the Efficacy is 98% in experiment [1] and 99% in experiment [4]. Besides, in [2], half-maximal inhibition (IC50) was put at 0.7 µg/mL (≈ 2.21 µM). In addition, in experiment [3], the EC50 was determined as 1.8 µg/mL (≈ 5.69 µM).

For the origin of these results see ChEMBL document CHEMBL1136231, “Synthesis of a novel family of diterpenes and their evaluation as anti-inflammatory agents” (Bioorg Med Chem Lett, 2003).
